Measurements published in patent publication US20250361274A1, “PEPTIDE AND PEPTIDE-CONTAINING AGENT” (PEPTIDREAM INC., priority 2022, published 2025).
Entries after “also recorded” stand apart in the source; their conditions may differ. Numbered stars: 1 amine (or outer) side, 2 acyl side, 3 side chain; on linkers, the order of the positions; unused ones are H or OH. Bridge positions count the residues as written; N and C are the ends. Square brackets hold non-standard residues; d marks the D form. Peptide text beside a SMILES is read from it. ξ: configuration not given here. X2 = O=C(C[C@@H](Cc1ccc(-c2ccccc2)cc1)C(=O)[*:2])[C@@H]1CCCN1[*:1]; Phe(4-COOH) = N[C@@H](Cc1ccc(C(=O)O)cc1)C(=O)O; Bip = N[C@@H](Cc1ccc(-c2ccccc2)cc1)C(=O)O; Nle(6-COOH) = N[C@@H](CCCCC(=O)O)C(=O)O; X1 = N=C(CN)NCCC[C@H](N[*:1])C(=O)[*:2]; Ala(4-THP) = N[C@@H](CC1CCOCC1)C(=O)O; ξE = NC(CCC(=O)O)C(=O)O; βAla = NCCC(=O)O

Biological target: T1, BMP7 (Homo sapiens, UniProt P18075)
T1 sequence (P18075 293-431): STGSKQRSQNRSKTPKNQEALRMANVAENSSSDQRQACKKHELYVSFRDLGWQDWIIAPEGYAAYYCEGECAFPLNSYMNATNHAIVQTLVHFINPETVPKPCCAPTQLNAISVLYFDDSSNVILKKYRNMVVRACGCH
Assay: BMP7 signal transduction inhibitory activity: SMAD1 phosphorylation by BMP7 stimulus, A549 cells
Assay type: cell-based
Method in brief: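 SMAD1 phosphorylation readout in A549 cells stimulated with BMP7 (10 nM). Peptides were tested at three levels (e.g. 1/10/100, 10/100/1,000, 100/300/1,000, 10/30/90 nM) or at eight points, 1/3 steps, from 100 or 1,000 nM. Recombinant Noggin served as positive control at matching concentrations.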

## CC(C)[C@@H]1NC(=O)[C@H](CCCNC(=N)N)NC(=O)[C@H](CCCCC(=O)O)NC(=O)CSC[C@@H](C(=O)NCCC(=O)NC(CCC(=O)O)C(=O)O)NC(=O)[C@H](CO)NC(=O)[C@H](Cc2ccc(C(=O)O)cc2)NC(=O)[C@H](Cc2ccc(C(=O)O)cc2)NC(=O)[C@H](Cc2ccc(O)cc2)NC(=O)[C@H](Cc2ccc(-c3ccccc3)cc2)CC(=O)[C@@H]2CCCN2C(=O)[C@H](Cc2ccc(O)cc2)NC(=O)[C@@H]2CCCN2C(=O)[C@H](Cc2ccc(-c3ccccc3)cc2)NC(=O)[C@H](CCCNC(=N)CN)NC(=O)[C@H](CC(=O)O)NC(=O)[C@H](CC2CCOCC2)NC(=O)[C@H](Cc2ccc(C(=O)O)cc2)NC1=O (stereo partly shown) [SEQ ID No. 177] ({CH2CO}-[Nle(6-COOH)]RV[Phe(4-COOH)][Ala(4-THP)]D[X1][Bip]PY[X2]Y[Phe(4-COOH)][Phe(4-COOH)]SC[βAla][ξE]-OH; thioether N-16)
  BMP7 inhibitory activity (in words): same level of the BMP7 inhibitory activity as Noggin; also recorded: signal transduction inhibitory activities of BMP4 and BMP7
